Assay results taken from PubChem BioAssay (NCI).
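Growth conditions: 96-well plates. Treatment: test compound, 48 hours, 5 concentrations. Analysis: linear interpolation between bracketing concentrations; unreached endpoints set to highest concentration. GI50: concentration for 50% inhibition of growth. Definition used: TGI = concentration required for complete inhibition of growth.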

Columns and labels:
Assay in all cases: growth of human tumour cells (NCI), 48 h
SW-620 colon = test system: SW-620 colon
A498 renal = test system: A498 renal
UACC-257 melanoma = test system: UACC-257 melanoma
SR leukemia = test system: SR leukemia
HCT-116 colon = test system: HCT-116 colon
HL-60(TB) leukemia = test system: HL-60(TB) leukemia
OVCAR-8 ovarian = test system: OVCAR-8 ovarian
KM12 colon = test system: KM12 colon
NCI/ADR-RES ovarian = test system: NCI/ADR-RES ovarian
MDA-MB-435 = test system: MDA-MB-435

| SMILES | TGI (SW-620 colon) [µM] | TGI (A498 renal) [µM] | TGI (UACC-257 melanoma) [µM] | TGI (SR leukemia) [µM] | TGI (HCT-116 colon) [µM] | TGI (HL-60(TB) leukemia) [µM] | TGI (OVCAR-8 ovarian) [µM] | TGI (KM12 colon) [µM] | GI50 (SW-620 colon) [µM] | GI50 (A498 renal) [nM] | GI50 (UACC-257 melanoma) [µM] | GI50 (SR leukemia) [nM] | GI50 (HCT-116 colon) [µM] | GI50 (HL-60(TB) leukemia) [µM] | GI50 (OVCAR-8 ovarian) [µM] | GI50 (KM12 colon) [µM] | GI50 (NCI/ADR-RES ovarian) [µM] | TGI (NCI/ADR-RES ovarian) [µM] | GI50 (MDA-MB-435) [µM] | TGI (MDA-MB-435) [µM] |
| --- | --- | --- | --- | --- | --- | --- | --- | --- | --- | --- | --- | --- | --- | --- | --- | --- | --- | --- | --- | --- |
| CC1=C[C@]2(O)C(=O)[C@H](C)C[C@H]3[C@@H](CC[C@@](C)(O)/C=C\2C1=O)C3(C)C | 35.9 | 47.2 | 35.7 | 45.2 | 30.9 | > 100 | 46.9 | > 100 |  |  |  |  |  |  |  |  |  |  |  |  |
| O=C1Cc2c([nH]c3ccccc23)-c2ccccc2N1 | 66.7 | > 100 | > 100 |  | 31.9 | > 100 | > 100 | 45.2 |  |  |  |  |  |  |  |  |  |  |  |  |
| CC1=C(C(=O)Nc2cc(=O)n(C)c(=O)n2C)C(c2cccc([N+](=O)[O-])c2)C(C(=O)Nc2cc(=O)n(C)c(=O)n2C)=C(C)N1 | > 100 | > 100 | > 100 |  |  | > 100 | > 100 | > 100 |  |  |  |  |  |  |  |  |  |  |  |  |
| C#CCOCn1cnc2c(Sc3c([N+](=O)[O-])ncn3C)ncnc21 | > 100 | > 100 | > 100 |  |  | > 100 | > 100 | > 100 |  |  |  |  |  |  |  |  |  |  |  |  |
| N#CC1=C(N)Oc2c(ccc3ccccc23)C1c1ccccc1 (stereo not drawn) | 18.6 | 0.0809 | 29.9 | 22.4 | 3.73 | 0.274 | 16.8 | 13.5 | 0.0388 | 18.5 | 11.9 | 33.6 | 0.0443 | 0.0295 | 0.0551 | 0.0419 | 0.0274 | 1.68 |  |  |
| CCOC(=O)Cc1ccc2c(c1O)C(=O)c1c(ccc(CC(=O)OCC)c1O)C2=O | > 100 | > 100 | > 100 | > 100 | > 100 | > 100 | > 100 | > 100 |  |  |  |  |  |  |  |  |  |  |  |  |
| c1cc(N2CCCN(c3ccc(C4=NCCCN4)cc3)CC2)ccc1C1=NCCCN1 | > 100 | > 100 | > 100 |  | > 100 | > 100 | > 100 | > 100 | > 100 | 2720 | > 100 |  | > 100 | > 100 | > 100 | > 100 | > 100 | > 100 | > 100 | > 100 |
| O=C1[C@H]2ON(c3ccccc3)C(c3ccccc3)[C@H]2C(=O)N1c1ccc(Cc2ccc(N3C(=O)[C@@H]4ON(c5ccccc5)C(c5ccccc5)[C@@H]4C3=O)cc2)cc1 (stereo partly drawn) | > 100 | > 100 | > 100 |  |  | > 100 |  | > 100 |  |  |  |  |  |  |  |  |  |  |  |  |
| O=C(c1ccccc1)c1c(-c2ccccc2)sc2nc3ccccc3nc12 | > 100 | > 100 | > 100 |  | > 100 | > 100 | > 100 | > 100 |  |  |  |  |  |  |  |  |  |  |  |  |
| O=C1NC(=O)C(c2ccccc2Cl)=C1Nc1cc(Cl)c(O)c(Cl)c1 | > 25 | > 25 |  |  | > 25 | > 25 | > 25 | > 25 | 9.74 | > 25000 |  |  | 13.6 | 9.75 | 17.6 | 12 | 14.9 | > 25 | 8.78 | > 25 |
| CC(=O)OC1CCn2nnc(CO)c21 (stereo not drawn) | > 100 |  | > 100 | > 100 | > 100 |  | > 100 | > 100 |  |  |  |  |  |  |  |  |  |  |  |  |
| C[C@]12CCC(=O)C(O)=C1CC[C@@H]1C2CC[C@]2(C)NC(=O)CCC12 (stereo partly drawn) | > 100 | > 100 | > 100 |  | > 100 | > 100 | > 100 | > 100 |  |  |  |  |  |  |  |  |  |  |  |  |
| CC(=O)c1cccc(C)c1C(=O)O | > 100 | > 100 | > 100 | > 100 | > 100 | > 100 | > 100 | > 100 |  |  |  |  |  |  |  |  |  |  |  |  |
| Cc1cc(-c2nc3sccn3c2/C=N/N=C(N)N)c(C)s1 | 54.5 | 33.9 | 36.2 |  | 25.3 | > 100 | 57 | 26.1 | 21.8 | 18800 | 18.9 |  | 12.7 | 15.6 | 29.4 | 13.3 | 17.4 | 31.6 | 13.3 | 26.1 |
| CNC(=S)NC(=O)c1c(Cl)n(C(=O)OC(C)(C)C)c2ccccc12 | > 100 | > 100 | > 100 |  | > 100 | > 100 | > 100 | > 100 | 79.2 | 51500 | 94.5 |  | 38.5 | 79.7 | 89.1 | 77.4 | 47.8 | > 100 | 44 | > 100 |
| CC(=O)N1C/C(=C/c2ccc(Cl)cc2)C(=O)/C(=C/c2ccc(Cl)cc2)C1 | 0.981 | 2.89 | 2.97 |  | 0.465 | 3.95 | 2.17 | 0.676 | 0.297 | 1410 | 1.52 |  | 0.202 | 0.924 | 0.463 | 0.255 | 2.56 | 12.6 | 0.43 | 1.82 |
| O=C1C=CC(=O)C12CCc1ccccc12 | > 100 | > 100 | > 100 |  | > 100 | > 60.6 | > 100 | > 100 |  |  |  |  |  |  |  |  |  |  |  |  |
| CC(=O)CC(N)=O | > 100 | > 100 | > 100 | > 100 | > 100 | > 100 | > 100 | > 100 |  |  |  |  |  |  |  |  |  |  |  |  |
| Cc1cccc(C)c1CO | > 100 |  | > 100 | > 100 | > 100 | > 100 | > 100 | > 100 |  |  |  |  |  |  |  |  |  |  |  |  |
| COc1ccc(NC(=O)CC/C(CC(=O)C(C)(C)C)=N\NC(=O)C(=O)NN)cc1 | > 100 | > 100 | > 100 | > 100 | > 100 | > 100 |  | > 100 |  |  |  |  |  |  |  |  |  |  |  |  |
